Structures can show the parent of a compound that is named as a salt. Where two headings read alike, the source gives them in different places. Bounds are passed on as bounds.

Data set [1] deals with SUDHL5. Put plainly: Induction of caspase-3/7 activity in SUDHL5 cells (Assay 4). The format is cell-based. A digest of the protocol:
(§1)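 DLBCL lines SUDHL5 and SUDHL10 were treated with compound for 3 h at 37 °C. Caspase-3/7 activity was then read by Caspase-Glo 3/7 luminescence after 1 h at 37 °C. Medium-only background was subtracted and values were normalized to the mean of DMSO-treated cells.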

Data set [2] deals with AMO-1. Put plainly: Anti-proliferative effect in AMO-1 cells, CellTiter-Glo (Assay 7). The format is cell-based. The conditions noted are these: several values per example. Here is the method: (§2) Assessment of the Anti-Proliferative Effect of Compounds in Different Cell Lines
(§3) The impact of compounds on the proliferation of different cell lines was assessed using the CellTiter-Glo® Luminescent Cell Viability reagent from Promega (G7573).
(§4) In parallel, cells were plated in a reference (day 0) plate for time zero determination. Cells were incubated in a humidified incubator at 37° C. overnight.
(§5) Rim wells were excluded. The cells were incubated for 72 hours in a humidified incubator at 37° C. The day 0 plate was measured by adding 30 μL/well of CTG solution (CellTiter-Glo® Luminescent Cell Viability reagent, Promega G7573) to time zero wells in the reference plate followed by a 10 minutes incubation and luminescence reading at 0.1 ms. using the PHERAstar FS microplate reader (BMG Labtech).
(§6) After 72 hours incubation, the treated plates were measured in the same way as the day 0 plate mentioned above. The Bella DRC Master Sheet was used to calculate IC50s, with CI=day 0 values and C0=DMSO control values.
(ATP-based viability assays read luminescence as a measure of living cells.)

Data set [3] relates to SUDHL10. Put plainly: Induction of caspase-3/7 activity in SUDHL10 cells (Assay 4). It is filed as cell-based. A digest of the protocol:
as §1

For data set [4], the system named is SUDHL5. In words: Induction of cytotoxicity in SUDHL5 cells, CellTiter-Glo (Assay 6). The format is cell-based. The conditions noted are these: SUDHL5, 5 hours incubation, median, read-out: Cytotox SUDHL5 [M] (median). Put shortly: (§7)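 Overnight seeding at 37 °C, 5 h treatment, CellTiter-Glo added, 15 min shake at RT, luminescence read. Medium without cells as control.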

Data set [5] deals with SUDHL5. In words: Anti-proliferative effect in SUDHL5 cells, CellTiter-Glo (Assay 7). The format is cell-based. A digest of the protocol:
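CellTiter-Glo luminescence after 72 h compound exposure at 37 °C; a parallel time-zero plate was read the same way. IC50 derived relative to day 0 signal and DMSO control.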

For data set [6], the system named is SUDHL10. In words: Induction of cytotoxicity in SUDHL10 cells, CellTiter-Glo (Assay 6). It is filed as cell-based. The following applies: SUDHL10, 5 hours incubation, median, read-out: Cytotox SUDHL10 [M] (median). Put shortly:
as §7

In data set [7] the test system is MV-4-11. Put plainly: Anti-proliferative effect in MV-4-11 cells, CellTiter-Glo (Assay 7). It is filed as cell-based. The following applies: several values per example. Here is the method:
as §2, §3, §4, §5, §6

For data set [8], the target named is MCL-1 (Homo sapiens, UniProt Q07820, K194A/K197A/R201A). Put plainly: Protein-protein interaction assay MCL-1/Noxa BH3 peptide, TR-FRET (MCL-1 assay, Assay 1). It is filed as binding. The following applies: MCL-1 Assay [M] (median), MBP-MCL-1 / Noxa BH3 peptide. A digest of the protocol:
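Human MBP-fused MCL-1 (aa 173-321; 1 nM final) was pre-incubated 10 min at 22 °C with compound in pH 7 Tris buffer containing NaCl, KF, Tween-20, DTT and BGG. Displacement of biotinylated Noxa BH3 peptide was read by TR-FRET (anti-MBP-Eu cryptate/streptavidin-XL665) after 1 h at 22 °C plus overnight at 4 °C. IC50 came from four-parameter fits against DMSO controls.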
On the technique in general: In TR-FRET formats the signal depends on donor and acceptor labels being close together.

Setting [9] is: Homo sapiens, SU-DHL-5, 3 h, SUDHL5, 3 hours treatment, Caspase-Glo 3/7, median, read-out: Caspase SUDHL5 [M] (median).
Setting [10] is: Homo sapiens, AMO1, 72 h, AMO-1, 72 hours incubation, CellTiter-Glo, read-out: Antiproli AMO-1.
Where [11] appears, read: Homo sapiens, SU-DHL10, 3 h, SUDHL10, 3 hours treatment, Caspase-Glo 3/7, median, read-out: Caspase SUDHL10 [M] (median).
Where [12] appears, read: Homo sapiens, SU-DHL-5, 72 h, SUDHL5, 72 hours incubation, CellTiter-Glo, median, read-out: Antiproli SUDHL5 [M] (median).
Setting [13] is: Homo sapiens, MV4-11, 72 h, MV-4-11, 72 hours incubation, CellTiter-Glo, read-out: Antiproli MV-4-11.

Sequence of MCL-1 (Q07820 173-321 K194A/K197A/R201A, looked up): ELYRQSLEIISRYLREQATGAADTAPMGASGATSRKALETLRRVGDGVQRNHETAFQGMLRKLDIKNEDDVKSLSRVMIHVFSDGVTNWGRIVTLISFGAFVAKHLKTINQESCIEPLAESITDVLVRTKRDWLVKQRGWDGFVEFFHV

As to `CCc1nn(C)c2c1-c1c(Cl)ccc3c(CCCOc4cccc5cc(F)ccc45)c(C(=O)O)n(c13)Cc1ccccc1COC2` (single isomer, unassigned; enantiomer 2) [Example 59, (−)-3-Chloro-4-ethyl-17-{3-[(6-fluoronaphthalen-1-yl)oxy]propyl}-6-methyl-6,7,9,14-tetrahydro-indolo[7,1-fg]pyrazolo[3,4-d][2,8]benzoxazacycloundecine-16-carboxylic acid-N-ethylethanamine Salt (Enantiomer 2)], the EC50 was found to be 1.9e-06 M in data set [1] (Homo sapiens, SU-DHL-5, 3 h, read-out: Caspase SUDHL5 [M] (median), SUDHL5, 3 hours treatment, Caspase-Glo 3/7) and 7.9e-06 M in data set [3] (Homo sapiens, SU-DHL10, 3 h, read-out: Caspase SUDHL10 [M] (median), SUDHL10, 3 hours treatment, Caspase-Glo 3/7). Moreover, the IC50 in data set [2] (Homo sapiens, AMO1, 72 h, read-out: Antiproli AMO-1 [M], AMO-1, 72 hours incubation, CellTiter-Glo) was 7.14e-06 M; in data set [4] (Homo sapiens, SU-DHL-5, 5 h) it was 2.2e-06 M; in data set [5] (Homo sapiens, SU-DHL-5, 72 h, read-out: Antiproli SUDHL5 [M] (median), SUDHL5, 72 hours incubation, CellTiter-Glo) it was 2.6e-06 M; in data set [6] (Homo sapiens, SU-DHL10, 5 h), 8.2e-06 M; in data set [7] (Homo sapiens, MV4-11, 72 h, read-out: Antiproli MV-4-11 [M], MV-4-11, 72 hours incubation, CellTiter-Glo) it was 4.5e-06 M; in data set [8] it was 1e-08 M.
With `Cc1cc(OCCCc2c(C(=O)O)n3c4c(c(F)ccc24)-c2c(C)nn(C)c2COCc2ccccc2C3)cc(C)c1Cl` (racemic) [Example 85, (rac)-1-(3-(4-chloro-3,5-dimethylphenoxy)propyl)-15-fluoro-12,14-dimethyl-4,9,11,12-tetrahydrobenzo[3,4]pyrazolo[4′,3′:9,10][1]oxa[6]azacycloundecino[8,7,6-hi]indole-2-carboxylic Acid], the results for the EC50 in data set [1] (setting [9]) and in data set [3] (setting [11]) were 3.7e-06 M and 2e-05 M, respectively. Moreover, the IC50 in data set [2] (setting [10]) came to 2.37e-05 M; in data set [4] (Homo sapiens, SU-DHL-5, 5 h), 3.3e-06 M; in data set [5] (setting [12]), 6.9e-06 M; in data set [6] (Homo sapiens, SU-DHL10, 5 h), 6.5e-06 M; in data set [7] (setting [13]), 1.7e-05 M; in data set [8], 1.2e-08 M.
`Cc1nn(C)c2c1-c1c(F)ccc3c(CCCOc4cccc5c4CCCC5)c(C(=O)O)n(c13)Cc1ccccc1COC2` (racemic) [Example 83, (rac)-15-Fluoro-12,14-dimethyl-1-(3-((5,6,7,8-tetrahydronaphthalen-1-yl)oxy)propyl)-4,9,11,12-tetrahydrobenzo[3,4]pyrazolo[4′,3′:9,10][1]oxa[6]azacycloundecino[8,7,6-hi]indole-2-carboxylic Acid]: the figures for the EC50 in data set [1] (setting [9]) and in data set [3] (setting [11]) were 4.6e-06 M and 1.2e-05 M, respectively. For the same molecule, the IC50 was found to be 1.61e-05 M in data set [2] (setting [10]); 3.4e-06 M in data set [4] (Homo sapiens, SU-DHL-5, 5 h); 4.9e-06 M in data set [5] (setting [12]); 5.5e-06 M in data set [6] (Homo sapiens, SU-DHL10, 5 h); 1.18e-05 M in data set [7] (setting [13]); 1e-08 M in data set [8].
As for `Cc1c2c(nn1C)COCc1nccnc1Cn1c(C(=O)O)c(CCCOc3cccc4ccccc34)c3ccc(Cl)c-2c31` (racemic) [Example 45, (rac)-3-Chloro-4,5-dimethyl-17-{3-[(naphthalen-1-yl)oxy]propyl}-5,7,9,14-tetrahydropyrazino-[2′,3′:3,4]pyrazolo[4′,3′:9,10][1,6]oxazacycloundecino[8,7,6-hi]indole-16-carboxylic Acid], the EC50 in data set [1] (setting [9]) is 2.2e-06 M; in data set [3] (setting [11]), 7.9e-06 M. In addition, the IC50 in data set [2] (setting [10]) was 9.56e-06 M; in data set [4] (Homo sapiens, SU-DHL-5, 5 h), 2.7e-06 M; in data set [6] (Homo sapiens, SU-DHL10, 5 h), 8.2e-06 M; in data set [7] (setting [13]) it was 1.19e-05 M.
As to `CCc1nn(CCN2CCOCC2)c2c1-c1c(Cl)ccc3c(CCCOc4cccc5cc(F)ccc45)c(C(=O)O)n(c13)Cc1ccccc1COC2` (racemic) [Example 51, (rac)-3-Chloro-4-ethyl-17-{3-[(6-fluoronaphthalen-1-yl)oxy]propyl}-6-[2-(morpholin-4-yl)ethyl]-6,7,9,14-tetrahydroindolo[7,1-fg]pyrazolo[3,4-d][2,8]benzoxazacycloundecine-16-carboxylic Acid], the EC50 in data set [1] (setting [9]) came out at 8.7e-07 M; in data set [3] (setting [11]), 1.8e-06 M. For the same molecule, the IC50 in data set [2] (AMO-1, 72 hours incubation, CellTiter-Glo, read-out: Antiproli AMO-1) is 2.64e-06 M; in data set [2] (setting [10]) it was 4.26e-06 M; in data set [4] (Homo sapiens, SU-DHL-5, 5 h) it was 1.1e-06 M; in data set [5] (setting [12]), 7.1e-07 M; in data set [6] (Homo sapiens, SU-DHL10, 5 h) it was 1.9e-06 M; in data set [7] (setting [13]), 1.96e-06 M. Also, the IC50 in data set [7] (MV-4-11, 72 hours incubation, CellTiter-Glo, read-out: Antiproli MV-4-11) worked out at 2.58e-06 M; in data set [8] it was 1.5e-09 M.
As to `CCc1nn(C)c2c1-c1c(F)ccc3c(CCCOc4ccc(F)c5ccccc45)c(C(=O)O)n(c13)Cc1ccccc1COC2` (racemic) [Example 89, (rac)-14-Ethyl-15-fluoro-1-(3-((4-fluoronaphthalen-1-yl)oxy)propyl)-12-methyl-4,9,11,12-tetrahydrobenzo[3,4]pyrazolo[4′,3′:9,10][1,6]oxaazacycloundecino[8,7,6-hi]indole-2-carboxylic Acid], the EC50 was 2.9e-06 M in data set [1] (setting [9]) and 8.3e-06 M in data set [3] (setting [11]). The IC50 was found to be 1.28e-05 M in data set [2] (setting [10]); 2.6e-06 M in data set [4] (Homo sapiens, SU-DHL-5, 5 h); 4e-06 M in data set [5] (setting [12]); 7.5e-06 M in data set [6] (Homo sapiens, SU-DHL10, 5 h); 8.44e-06 M in data set [7] (setting [13]); 1.2e-08 M in data set [8].
In the case of `Cc1c2c(nn1C)COCc1ccccc1Cn1c(C(=O)O)c(CCCOc3cccc4ccccc34)c3ccc(F)c-2c31` (single isomer, unassigned; enantiomer 2) [Example 69, (+)-3-Fluoro-4,5-dimethyl-17-{3-[(naphthalen-1-yl)oxy]propyl}-5,7,9,14-tetrahydroindolo[7,1-fg]pyrazolo[3,4-d][2,8]benzoxazacycloundecine-16-carboxylic acid-N-ethylethanamine Salt (Enantiomer 2)], the EC50 is 1.3e-05 M in data set [1] (read-out: Caspase SUDHL5 [M] (median), SUDHL5, 3 hours treatment, Caspase-Glo 3/7) and over 3.3e-05 M in data set [3] (read-out: Caspase SUDHL10 [M] (median), SUDHL10, 3 hours treatment, Caspase-Glo 3/7). In addition, the IC50 was 2.6e-05 M in data set [2] (read-out: Antiproli AMO-1, AMO-1, 72 hours incubation, CellTiter-Glo); 1.4e-05 M in data set [4]; 1.2e-05 M in data set [5] (read-out: Antiproli SUDHL5 [M] (median), SUDHL5, 72 hours incubation, CellTiter-Glo); over 3.3e-05 M in data set [6]; 1.51e-05 M in data set [7] (read-out: Antiproli MV-4-11, MV-4-11, 72 hours incubation, CellTiter-Glo); 2.1e-08 M in data set [8].
In the case of `Cc1c2c(nn1C)CN(C)Cc1ccccc1Cn1c(C(=O)O)c(CCCOc3cccc4ccccc34)c3cccc-2c31` (single isomer, unassigned; enantiomer 2) [Example 16, 4,5,8-Trimethyl-17-[3-(naphthalen-1-yloxy)propyl]-7,8,9,14-tetrahydro-5H-indolo[1,7-bc]pyrazolo[4,3-e][2,8]benzodiazacycloundecine-16-carboxylic Acid (Enantiomer 2)], the EC50 in data set [1] (setting [9]) is 2.4e-05 M; in data set [3] (setting [11]) it was over 3.3e-05 M. Also, the IC50 came to 2.03e-05 M in data set [2] (setting [10]); 2.4e-05 M in data set [4]; 3e-05 M in data set [6]; 1.15e-05 M in data set [7] (setting [13]); 1.1e-07 M in data set [8].
